system: HCV 1b-Con1 replicon; assay: HCV 1b-Con1 replicon assay in the presence of 5% FBS; type: cell-based; conditions: Hepatitis C virus

`COC(=O)NC(C(=O)N1CCC[C@H]1c1nc2cc([C@@H]3CC[C@@H](c4ccc5[nH]c([C@@H]6CCCN6C(=O)C(NC(=O)OC)=C(C)C)nc5c4)N3c3ccc(C(C)(C)C)cc3)ccc2[nH]1)=C(C)C` [Example 3.17, dimethyl {[(2S,5S)-1-(4-tert-butylphenyl)pyrrolidine-2,5-diyl]bis[1H-benzimidazole-5,2-diyl(2S)pyrrolidine-2,1-diyl(3-methyl-1-oxobut-2-ene-1,2-diyl)]}biscarbamate] was tested. Which EC50 did it give?
Its EC50 is under 0.1 nM.

`COC(=O)N[C@H](C(=O)N1CCC[C@H]1c1nc2ccc([C@H]3CC[C@H](c4cc5[nH]c([C@@H]6CCCN6C(=O)[C@@H](NC(=O)OC)C(C)C)nc5cc4F)N3c3cc(F)c(N4CCCCC4)c(F)c3)cc2[nH]1)C(C)C` [Example 4.43, methyl {(2S)-1-[(2S)-2-{6-[(2R,5R)-1-[3,5-difluoro-4-(piperidin-1-yl)phenyl]-5-{5-fluoro-2-[(2S)-1-{(2S)-2-[(methoxycarbonyl)amino]-3-methylbutanoyl}pyrrolidin-2-yl]-1H-benzimidazol-6-yl}pyrrolidin-2-yl]-1H-benzimidazol-2-yl}pyrrolidin-1-yl]-3-methyl-1-oxobutan-2-yl}carbamate] was tested. Which EC50 did it give?
Its EC50 is under 0.1 nM.

For `COC(=O)N[C@H](C(=O)N1CCC[C@H]1c1nc2cc([C@H]3CC[C@H](c4cc5nc([C@@H]6CCCN6C(=O)[C@@H](NC(=O)OC)C(C)C)[nH]c5cc4F)N3c3cc(F)c(N4CCC(c5ccccc5)CC4)c(F)c3)c(F)cc2[nH]1)C(C)C` [Example 6.11, methyl {(2S)-1-[(2S)-2-{5-[(2R,5R)-1-[3,5-difluoro-4-(4-phenylpiperidin-1-yl)phenyl]-5-{6-fluoro-2-[(2S)-1-{(2S)-2-[(methoxycarbonyl)amino]-3-methylbutanoyl}pyrrolidin-2-yl]-1H-benzimidazol-5-yl}pyrrolidin-2-yl]-6-fluoro-1H-benzimidazol-2-yl}pyrrolidin-1-yl]-3-methyl-1-oxobutan-2-yl}carbamate], which EC50 is on record?
Its EC50 is under 0.1 nM.

How did the EC50 turn out when `COC(=O)N[C@H](C(=O)N1CCC[C@H]1c1nc2cc([C@H]3CC[C@H](c4ccc5[nH]c([C@@H]6CCCN6C(=O)[C@@H](NC(=O)OC)C(C)C)nc5c4)N3c3cc(F)c(N4CCC(c5ccc(F)cc5)CC4)c(F)c3)ccc2[nH]1)C(C)C` [Example 3.42, methyl {(2S)-1-[(2S)-2-{5-[(2R,5R)-1-{3,5-difluoro-4-[4-(4-fluorophenyl)piperidin-1-yl]phenyl}-5-{2-[(2S)-1-{(2S)-2-[(methoxycarbonyl)amino]-3-methylbutanoyl}pyrrolidin-2-yl]-1H-benzimidazol-5-yl}pyrrolidin-2-yl]-1H-benzimidazol-2-yl}pyrrolidin-1-yl]-3-methyl-1-oxobutan-2-yl}carbamate] was run?
Its EC50 is under 0.1 nM.

For `COC(=O)N[C@H](C(=O)N1CCC[C@H]1c1nc2cc([C@H]3CC[C@@H](c4cc5nc([C@@H]6CCCN6C(=O)[C@@H](NC(=O)OC)C(C)C)[nH]c5cc4F)N3c3cc(F)c(N4CCCCC4)c(F)c3)c(F)cc2[nH]1)C(C)C` [Example 4.52, methyl {(2S)-1-[(2S)-2-{5-[(2S,5R)-1-[3,5-difluoro-4-(piperidin-1-yl)phenyl]-5-{6-fluoro-2-[(2S)-1-{(2S)-2-[(methoxycarbonyl)amino]-3-methylbutanoyl}pyrrolidin-2-yl]-1H-benzimidazol-5-yl}pyrrolidin-2-yl]-6-fluoro-1H-benzimidazol-2-yl}pyrrolidin-1-yl]-3-methyl-1-oxobutan-2-yl}carbamate], which EC50 is on record?
The EC50 was under 0.1 nM.

How did the EC50 turn out when `COC(=O)N[C@H](C(=O)N1CCC[C@H]1c1nc2cc([C@H]3CC[C@H](c4cc5nc([C@@H]6CCCN6C(=O)[C@@H](NC(=O)OC)C(C)C)[nH]c5cc4F)N3c3cc(F)c(N4CCC(CCCc5ccccc5)CC4)c(F)c3)c(F)cc2[nH]1)C(C)C` [Example 4.26, methyl {(2S)-1-[(2S)-2-{5-[(2R,5R)-1-{3,5-difluoro-4-[4-(3-phenylpropyl)piperidin-1-yl]phenyl}-5-{6-fluoro-2-[(2S)-1-{(2S)-2-[(methoxycarbonyl)amino]-3-methylbutanoyl}pyrrolidin-2-yl]-1H-benzimidazol-5-yl}pyrrolidin-2-yl]-6-fluoro-1H-benzimidazol-2-yl}pyrrolidin-1-yl]-3-methyl-1-oxobutan-2-yl}carbamate] was run?
Its EC50 is under 0.1 nM.

How did the EC50 turn out when `COC(=O)N[C@H](C(=O)N1[C@H](c2nc3cc([C@H]4CC[C@H](c5ccc6[nH]c([C@@H]7C[C@@H]8CCC[C@@H]8N7C(=O)[C@@H](NC(=O)OC)[C@@H](C)OC)nc6c5)N4c4cc(F)c(N5CCCCC5)c(F)c4)ccc3[nH]2)C[C@@H]2CCC[C@@H]21)[C@@H](C)OC` [Example 3.33] was run?
The EC50 was under 0.1 nM.

`COC(=O)N[C@H](C(=O)N1CCC[C@H]1c1nc2cc([C@H]3CC[C@H](c4ccc5[nH]c([C@@H]6CCCN6C(=O)[C@@H](NC(=O)OC)C(C)C)nc5c4)N3c3cc(F)c(N4CCN(c5ccccc5)CC4)c(F)c3)ccc2[nH]1)C(C)C` [Example 4.58, methyl {(2S)-1-[(2S)-2-{5-[(2R,5R)-1-[3,5-difluoro-4-(4-phenylpiperazin-1-yl)phenyl]-5-{2-[(2S)-1-{(2S)-2-[(methoxycarbonyl)amino]-3-methylbutanoyl}pyrrolidin-2-yl]-1H-benzimidazol-5-yl}pyrrolidin-2-yl]-1H-benzimidazol-2-yl}pyrrolidin-1-yl]-3-methyl-1-oxobutan-2-yl}carbamate] was tested. Which EC50 did it give?
The EC50 was under 0.1 nM.

With `COC(=O)N[C@H](C(=O)N1CCC[C@H]1c1nc2cc([C@@H]3CC[C@@H](c4ccc5[nH]c([C@@H]6CCCN6C(=O)[C@@H](NC(=O)OC)C(C)C)nc5c4)N3c3ccc(N4CCCCC4)c(F)c3)ccc2[nH]1)C(C)C` [Example 3.15, methyl {(2S)-1-[(2S)-2-{5-[(2S,55)-1-[3-fluoro-4-(piperidin-1-yl)phenyl]-5-{2-[(2S)-1-{(2S)-2-[(methoxycarbonyl)amino]-3-methylbutanoyl}pyrrolidin-2-yl]-1H-benzimidazol-5-yl}pyrrolidin-2-yl]-1H-benzimidazol-2-yl}pyrrolidin-1-yl]-3-methyl-1-oxobutan-2-yl}carbamate] as the compound, how does the EC50 read?
Its EC50 is under 0.1 nM.

With `COC(=O)N[C@H](C(=O)N1CCC[C@H]1c1nc2cc([C@H]3CC[C@H](c4ccc5[nH]c([C@@H]6CCCN6C(=O)[C@@H](NC(=O)OC)C(C)C)nc5c4)N3c3cc(F)c(N4CCC(c5cc(F)cc(F)c5)CC4)c(F)c3)ccc2[nH]1)C(C)C` [Example 3.45, methyl {(2S)-1-[(2S)-2-{5-[(2R,5R)-1-{4-[4-(3,5-difluorophenyl)piperidin-1-yl]-3,5-difluorophenyl}-5-{2-[(2S)-1-{(2S)-2-[(methoxycarbonyl)amino]-3-methylbutanoyl}pyrrolidin-2-yl]-1H-benzimidazol-5-yl}pyrrolidin-2-yl]-1H-benzimidazol-2-yl}pyrrolidin-1-yl]-3-methyl-1-oxobutan-2-yl}carbamate] as the compound, how does the EC50 read?
The EC50 was under 0.1 nM.

How did the EC50 turn out when `COC(=O)N[C@H](C(=O)N1CCC[C@H]1c1nc2cc([C@H]3CC[C@H](c4cc5nc([C@@H]6CCCN6C(=O)[C@@H](NC(=O)OC)C(C)C)[nH]c5cc4F)N3c3cc(F)c(N4CCC(c5ccc6ccccc6c5)CC4)c(F)c3)c(F)cc2[nH]1)C(C)C` [Example 4.30, methyl {(2S)-1-[(2S)-2-{5-[(2R,5R)-1-{3,5-difluoro-4-[4-(2-naphthyl)piperidin-1-yl]phenyl}-5-{6-fluoro-2-[(2S)-1-{(2S)-2-[(methoxycarbonyl)amino]-3-methylbutanoyl}pyrrolidin-2-yl]-1H-benzimidazol-5-yl}pyrrolidin-2-yl]-6-fluoro-1H-benzimidazol-2-yl}pyrrolidin-1-yl]-3-methyl-1-oxobutan-2-yl}carbamate] was run?
The EC50 was under 0.1 nM.

Which EC50 does the source give for `COC(=O)N[C@H](C(=O)N1CCC[C@H]1c1nc2ccc([C@H]3CC[C@H](c4ccc5nc([C@@H]6CCCN6C(=O)[C@@H](NC(=O)OC)C(C)C)[nH]c5c4)N3c3cc(F)c(N4CCC(c5ccc(OC)cc5)CC4)c(F)c3)cc2[nH]1)C(C)C` [Example 4.34, methyl {(2S)-1-[(2S)-2-{6-[(2R,5R)-1-{3,5-difluoro-4-[4-(4-methoxyphenyl)piperidin-1-yl]phenyl}-5-{2-[(2S)-1-{(2S)-2-[(methoxycarbonyl)amino]-3-methylbutanoyl}pyrrolidin-2-yl]-1H-benzimidazol-6-yl}pyrrolidin-2-yl]-1H-benzimidazol-2-yl}pyrrolidin-1-yl]-3-methyl-1-oxobutan-2-yl}carbamate] here?
Its EC50 is under 0.1 nM.

Which EC50 does the source give for `COC(=O)N[C@H](C(=O)N1[C@H](c2nc3cc([C@H]4CC[C@H](c5cc6nc([C@@H]7C[C@@H]8CCC[C@@H]8N7C(=O)[C@@H](NC(=O)OC)C7CCCC7)[nH]c6cc5F)N4c4cc(F)c(N5CCCCC5)c(F)c4)c(F)cc3[nH]2)C[C@@H]2CCC[C@@H]21)C1CCCC1` [Example 3.40, dimethyl ({(2R,5R)-1-[3,5-difluoro-4-(piperidin-1-yl)phenyl]pyrrolidine-2,5-diyl}bis{(6-fluoro-1H-benzimidazole-5,2-diyl)(2S,3aS,6aS)hexahydrocyclopenta[b]pyrrole-2,1(2H)-diyl[(1S)-1-cyclopentyl-2-oxoethane-2,1-diyl]})biscarbamate] here?
Its EC50 is under 0.1 nM.

With `COC(=O)N[C@H](C(=O)N1CCC[C@H]1c1nc2cc([C@H]3CC[C@H](c4ccc5[nH]c([C@@H]6CCCN6C(=O)[C@@H](NC(=O)OC)C(C)C)nc5c4)N3c3cc(F)c(N4CCC5(CC4)OCCO5)c(F)c3)ccc2[nH]1)C(C)C` [Example 5.14] as the compound, how does the EC50 read?
Its EC50 is under 0.1 nM.

Which EC50 does the source give for `COC(=O)N[C@H](C(=O)N1CCC[C@H]1c1nc2cc([C@H]3CC[C@H](c4ccc5[nH]c([C@@H]6CCCN6C(=O)[C@@H](NC(=O)OC)C(C)C)nc5c4)N3c3cc(F)c(N4CCOC(c5ccccc5)C4)c(F)c3)ccc2[nH]1)C(C)C` (stereo partly drawn) [Example 4.49, methyl {(2S)-1-[(2S)-2-{5-[(2R,5R)-1-[3,5-difluoro-4-(2-phenylmorpholin-4-yl)phenyl]-5-{2-[(2S)-1-{(2S)-2-[(methoxycarbonyl)amino]-3-methylbutanoyl}pyrrolidin-2-yl]-1H-benzimidazol-5-yl}pyrrolidin-2-yl]-1H-benzimidazol-2-yl}pyrrolidin-1-yl]-3-methyl-1-oxobutan-2-yl}carbamate] here?
The EC50 was under 0.1 nM.
